Experiment: gradient 5% acetonitrile 3 min, to 50% in 2 min, to 85% in 15 min, held 3 min, 100 µL/min
Details: column: Zorbax Extend-C18 2.1 x 50 mm; eluents: water / acetonitrile, 0.1% formic acid
Procedure, shortened: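 Retention time was recorded from adduct peaks, which were picked computationally and each inspected manually. Pure standards ran in mixtures of ~100 molecules on HPLC coupled to a quadrupole time-of-flight mass spectrometer, in positive and negative ionization mode, through a Zorbax Extend-C18 column (2.1 × 50 mm, 1.8 μm) at 100 μL/min. Eluents were water and acetonitrile, each with 0.1% formic acid.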

SMILES	RP-LC retention time
Cc1cc(S(=O)(=O)[C@H]2CS(=O)(=O)C[C@@H]2N2CCN(c3ccccc3F)CC2)ccc1F	1040 s
O=C(c1ccccc1Br)N1CCN(Cc2nc(-c3ccccc3)cs2)CC1	773 s
c1cc(CN2CCCCC2)cc(OCCCNc2nc3ccccc3s2)c1	665 s
O=C(Cc1cccs1)Nc1nnc(Cc2ccc(F)cc2)o1	707 s
CCOc1ccccc1N1CCN(S(=O)(=O)c2nn(CC)cc2C(=O)NCCOC)CC1	910 s
CN(Cc1ccccc1)C(=O)c1cn(-c2cc(-c3nc(C(C)(C)C)no3)ccn2)cn1	1050 s
O=S(=O)(NCCc1ccccc1)c1ccccc1-c1nc(-c2ccccc2)no1	1210 s
CCCCCC(=O)Nc1nc(-c2ccc(C)cc2C)cs1	1190 s
CCn1cc(C(=O)Nc2ccc(Br)cc2)c2nn(-c3ccccc3)c(=O)c-2c1	1090 s
C(=C\c1ccccc1)/CN1CCN(CCOC(c2ccccc2)c2ccccc2)CC1	884 s
O=C(c1ccccc1)N1CCN(C(=O)c2nnn3c2COC(c2ccc(Cl)cc2)C3)CC1 (stereo unspecified)	873 s
CC(C)c1noc(C2CCCCN2Cc2nc(-c3cccnc3)no2)n1 (stereo unspecified)	832 s
COc1ccccc1C(=O)Nc1c2c(nn1C(C)(C)C)CS(=O)(=O)C2	740 s
O=C(Nc1cc(-c2ccsc2)no1)C1(c2ccccc2)CC1	1030 s
Cc1cccc(-c2noc(Cn3c(=O)n(-c4ccccc4)c(=O)c4sccc43)n2)c1	1000 s
CC(C)c1nn2c(S(=O)(=O)NCc3cccs3)c(C(C)C)nc2s1	966 s
COC(=O)c1cc(OCC(=O)Nc2ccc(F)cc2)c2cc(F)ccc2n1	836 s
C=Cc1ccc(CSc2ccc(-n3nc4c(c3C)CCC4)nn2)cc1	1070 s
COC(=O)c1ccccc1Nc1c(-c2ccc(OC)c(OC)c2)nc2cnccn12	732 s
O=C1NCCN2CC3(CCN(S(=O)(=O)c4cccc5cccnc45)CC3)CC12 (stereo unspecified)	581 s
COc1cccc(CNC(=O)Cn2c(=O)cc(-c3nc(C4CC4)no3)c3ccccc32)c1	902 s
O=C(NCC1CCCO1)c1cc(=O)n(Cc2ccc(Cl)cc2)c2ccccc12 (stereo unspecified)	815 s

SMILES	RP-LC retention time
CCOCCCNC(=O)CC1CCN(c2ccnc(OC)n2)CC1	574 s
Cn1c(C2CCN(C(=O)Nc3cc(F)cc(F)c3)CC2)cc(=O)n2nccc12	695 s
Cc1csc(-c2cc(S(=O)(=O)Nc3ccc(F)c(Cl)c3)c(C)s2)n1	1070 s
O=C(c1nc(Cn2nc(-c3ccc(F)cc3)ccc2=O)no1)N1CCCC1	900 s
CCNC(=O)NS(=O)(=O)c1sc(CC(C)C)cc1-c1ccc(Cn2c(-c3ccccc3)nc(OC)c2C=O)cc1	1280 s
Cc1cccc(S(=O)(=O)N2CCC(n3cnnc3C(C)C)CC2)c1	735 s
COc1cc(OC)cc(C(=O)Nc2nc(-c3ccc4c(c3)NC(=O)CO4)cs2)c1	897 s
Cc1ccc2c(c1)N(C(=O)Cn1ccc3ccn(Cc4ccccc4)c3c1=O)CCO2	853 s
Cc1nn(CC(=O)N2CCCC2)c(=O)c2nc(C(C)C)sc12	680 s
COc1ccc(-c2csc3c(=O)n(CC(C)C)cnc23)cc1	1020 s
COCCCNC(=O)Cn1c(=O)n(-c2ccc(F)cc2)c2ncccc21	1390 s
COc1cc(CNC(=O)C2CCN(c3nc(C4CCC4)nc4csc(C)c34)CC2)cc(OC)c1	748 s
COc1ccc(OC)c(CNC(=O)c2c(N3CCCC3=O)c3cc(OC)ccc3n2C)c1	849 s
O=C(CCC(=O)N1CCOc2ccc(Cl)cc21)N1CCN(c2ccccn2)CC1	656 s
COCCc1nncn1C1CCN(C(=O)c2cc(F)ccc2F)CC1	618 s
CS(=O)(=O)Nc1ccc(C2(C(=O)N3CCN(c4ccccc4)CC3)CCCCC2)cc1	674 s
CCN(CC)C(=O)CN1CCN(c2cc(C(=O)O)c3cc(NC(=O)C(C)(C)C)ccc3n2)CC1	572 s
COc1ccc(-n2ncc3c(=O)n(Cc4nc(-c5ccccc5)no4)cnc32)cc1	961 s
Cc1cc(-c2nnc(C3CCC3)o2)c(C)n1CC(=O)Nc1ccccc1	846 s
CCOc1ccc(Cc2nc(-c3ccc4c(c3)nc(C)c(=O)n4C)no2)cc1OCC	970 s
Cc1cccc(OCC(=O)Nc2ccc3c(c2)Sc2ncccc2C(=O)N3C)c1	856 s
CC(C)CCn1nc2c(S(=O)(=O)N3CCc4ccccc4C3)cccn2c1=O	1010 s

SMILES	RP-LC retention time
CC(C)(C)c1ccc(-c2nc(C3CC(=O)N(c4ccc(F)cc4)C3)no2)cc1 (stereo unspecified)	1250 s
COc1ccc2c(c1)C1(CCN(C(=O)c3ccc(OC)c(OC)c3)C1)C(=O)N2C (stereo unspecified)	886 s
CCCNC(=O)N1C[C@@H]2CCCN3CCC[C@@H]([C@H]23)[C@H]1CCCC(=O)NCC1CC1	576 s
CC(C)OCCCNC(=O)Cn1cccc1-c1nc(-c2ccc(Cl)cc2)cs1	1100 s
Cc1cc(C)n(-c2ccnc(N3CCN(C(C)C)CC3)n2)n1	610 s
CCN1C(=O)c2cccnc2Sc2cc(NC(=O)c3sccc3C)ccc21	842 s
O=C(NCC(=O)N1CCN(c2ccccn2)CC1)c1cncc(Br)c1	576 s
CN(C)c1cccc(C(=O)N2CCN(S(=O)(=O)C3CC3)CC2)c1	630 s
O=C(NC1CCCCC1)C1CCN(C(=O)C2Sc3ccccc3NC2=O)CC1 (stereo unspecified)	732 s
COc1cc(NS(=O)(=O)c2cc3n(c2)CCN(C(C)C)C3=O)cc(OC)c1	748 s
c1cn(-c2cc(N3CCCC3)ncn2)cn1	556 s
Cn1cc(-c2ccc3nnc(C(F)(F)c4ccc5ncccc5c4)n3n2)cn1	694 s
COc1ccc(NC(=O)Cn2ccc3sccc3c2=O)cc1	706 s
COc1cccc(C2=NN(C(C)=O)C(c3ccc(Br)cc3)O2)c1OC(C)=O (stereo unspecified)	1040 s
COc1ccccc1CCNC(=O)Cc1csc(NC(=O)c2ccco2)n1	700 s
COc1ccc(OC)c(CNC(=O)Cc2nnc(-c3cccs3)o2)c1	700 s
COCc1nc(-c2ccc(OC3CN(C(=O)NC(C)C)C3)cc2)no1	773 s
O=C(Nc1cc(-c2cccnc2)no1)c1ccc2c(c1)OCO2	710 s
O=C(c1cnccn1)N1CCC2(CC1)N=C(c1ccccc1)NO2	641 s
Cc1noc(C)c1CC(=O)N1CCOc2ccc(N(C)C)cc2C1	584 s
Cc1cc(C)cc(-n2c(-c3ccc(Cl)cc3)cn3c4c(=O)n(C)c(=O)n(C)c4nc23)c1	1130 s
CCc1nc(-c2cccc(-c3noc(CNC(=O)c4ccccc4)n3)c2)cs1	1010 s

From the METLIN SMRT retention time set (Domingo-Almenara et al. 2019)
